Values quoted from earlier work as cited in patent publication US20060134216A1, “Enteric film coating composition containing enteric polymer micronized with detackifier” (priority 2004, published 2006).

Settings: aqueous solution at pH values under 4.0

half-life: less than ten
SMILES: COc1ccc2[nH]c([S+]([O-])Cc3ncc(C)c(OC)c3C)nc2c1 (stereo not shown) [omeprazole]
